Data published in US10130602B2, “Use of L-carnitine, salts and derivatives thereof for reducing or preventing fatigue and improving cognitive function” (priority 2011, dated 2018).

Assays:
Type in all cases: in vivo, human
[1] = test system: healthy, young male and female adults; test: Cognitive Demand Battery (CDB), overall performance; conditions: for Beneficial effect on fatigue / cognitive function, overall statement: general statement, preliminary findings for acetyl-L-carnitine
Source text: The working hypothesis underlying this approach is that neural activity is costly in terms of local neural resources (e.g. metabolic substrates) and that the brain is therefore liable to suffer deficiencies in the short term. Any psychoactive properties of a test substance are therefore liable to be more readily apparent during this period of intense cognitive demand and the ‘mental fatigue’ state elicited by prolonged task performance. This paradigm may therefore be more sensitive than the use of less demanding cognitive tasks, particularly if an intervention has an impact on the delivery or utilisation of metabolic substrates.
(§1) In the current double-blind, placebo-controlled, balanced cross-over experiment we assessed the effects of single doses of LC (500 mg and 2000 mg) and ALC (1000 mg), administered on separate occasions, on mental fatigue and cognitive function during extended performance of mentally demanding tasks in healthy, young male and female adults.
(§2) 20 healthy adults (10 male, 10 female, 18 to 25 years) who had not taken prescription or illicit drugs or any food supplements within the preceding 4 weeks were recruited. Smokers and excessive consumers of caffeine were excluded, as were those who had consumed alcohol or caffeine within the 12 hours prior to a testing session.
Each participant received each treatment in an order counterbalanced by random allocation to a Latin square. Depending on the condition to which the participant was allocated on each day they received 4 capsules containing either 500 mg LC or 500 mg ALC or a placebo which were combined to give a total dose of either:
(§3) The objective of this battery is to assess the impact of a treatment on speed/accuracy and mental fatigue during continuous performance of cognitively demanding tasks. […] The 10 minute battery comprises:
(§4) Following the introductory visit participants attended the laboratory at 8.30 am on four further occasions, one week apart, receiving a different treatment on each occasion. They fasted (no food or drink except for water) and consumed no caffeine or alcohol for at least 12 hours prior to each session. On their first study day participants were randomly allocated to a treatment regime on the Latin square. On arrival on each occasion participants consumed a standard breakfast (40 g Kellogg's All-bran with 150 ml skimmed milk and a glass of water) following which they undertook an initial cognitive/mood assessment comprising completion of the attention tasks (‘Simple’/‘Choice’/‘Four choice’ reaction time) followed by 2 completions of the 10 minute CDB tasks (the first completion was a practice and the second was used for baseline assessment of performance) and the Stroop and Logical Reasoning tasks. They then consumed their treatment for that day. At 120 minutes post-dose they completed the attention tasks then commenced the full 60 minute (i.e. 6 completions of the 10 minutes of tasks) CDB. […] Mood was assessed with Bond-Lader mood scales pre-treatment and before and after the post-treatment cognitive assessment. […]
(§5) Statistical analysis for all of the cognitive/fatigue and mood measures derived from the battery were analysed by repeated measures Analysis of Variance (ANOVA) of baseline adjusted data (calculated against pre-dose). Measures with a single post-dose repetition (attention tasks, executive tasks) were analysed by one way ANOVA (condition). Measures with multiple post-dose repetitions (Mood, CDB) were analysed with two way ANOVA (condition×repetition). […]

[2] = test system: healthy, young male and female adults; test: Bond-Lader mood scales
Description: as §1, §2
Prior to and following the tasks mood was assessed with Bond and Lader scales. This measure has been utilised in numerous pharmacological, psychopharmacological and medical trials. The scales comprise a total of sixteen lines (approximately 100 mm on screen) anchored at either end by antonyms (e.g. alert-drowsy, calm-excited). Subjects indicate their current subjective position between the antonyms on the line. Individual item scores were calculated as % distance along the line. Outcomes comprised three factor analysis derived scores: ‘Alertness’, ‘Calmness’ and ‘Contentment’.
(§6) Following the introductory visit participants attended the laboratory at 8.30 am on four further occasions, one week apart, receiving a different treatment on each occasion. They fasted (no food or drink except for water) and consumed no caffeine or alcohol for at least 12 hours prior to each session. On their first study day participants were randomly allocated to a treatment regime on the Latin square. On arrival on each occasion participants consumed a standard breakfast (40 g Kellogg's All-bran with 150 ml skimmed milk and a glass of water) following which they undertook an initial cognitive/mood assessment comprising completion of the attention tasks (‘Simple’/‘Choice’/‘Four choice’ reaction time) followed by 2 completions of the 10 minute CDB tasks (the first completion was a practice and the second was used for baseline assessment of performance) and the Stroop and Logical Reasoning tasks. They then consumed their treatment for that day. At 120 minutes post-dose they completed the attention tasks then commenced the full 60 minute (i.e. 6 completions of the 10 minutes of tasks) CDB. Following completion of the CDB participants completed the ‘Logical Reasoning’ and the ‘Stroop’ executive function tasks. Mood was assessed with Bond-Lader mood scales pre-treatment and before and after the post-treatment cognitive assessment. The set-up is shown schematically in FIG. 1.
(§7) Statistical analysis for all of the cognitive/fatigue and mood measures derived from the battery were analysed by repeated measures Analysis of Variance (ANOVA) of baseline adjusted data (calculated against pre-dose). Measures with a single post-dose repetition (attention tasks, executive tasks) were analysed by one way ANOVA (condition). Measures with multiple post-dose repetitions (Mood, CDB) were analysed with two way ANOVA (condition×repetition). Planned comparisons (placebo versus each active treatment) were then undertaken on baseline adjusted data from the single completion, or each of the multiple completions, as appropriate, utilising t-tests with Mean Squares Error from the ANOVA (Keppel 1991).

[3] = test system: healthy, young male and female adults; test: Cognitive Demand Battery: Rapid Visual Information Processing task (RVIP)
Description: as §1, §2, §3
The participants monitored a continuous series of digits for targets of three consecutive odd or three consecutive even digits. The digits were presented at the rate of 100 per minute and the participants responded to the detection of a target string by pressing a response key as quickly as possible. The task is continuous and lasts for 5 minutes, with 8 correct target strings being presented in each minute. The task was scored for percentage of target strings correctly detected, average reaction time for correct detections, and number of false alarms.
as §6, §7

[4] = test system: healthy, young male and female adults; test: Cognitive Demand Battery: Serial Sevens subtractions
Description: as §1, §2, §3
Modified, two minute, computerised versions of the Serial Threes and Serial Sevens tests were utilised. […] The task was scored for total number of subtractions and number of errors. In the case of incorrect responses, subsequent responses were scored as positive if they were correct in relation to the new number.
Following the introductory visit participants attended the laboratory at 8.30 am on four further occasions, one week apart, receiving a different treatment on each occasion. […] Mood was assessed with Bond-Lader mood scales pre-treatment and before and after the post-treatment cognitive assessment. […]
as §5

[5] = test system: healthy, young male and female adults; test: Cognitive Demand Battery: Serial Threes subtractions
Description: as §1, §2, §3
Modified, two minute, computerised versions of the Serial Threes and Serial Sevens tests were utilised. For both tasks a standard instruction screen informed the participant to count backwards in threes or sevens from the given randomly generated number, as quickly and accurately as possible, using the linear number keys to enter each response. Participants were also instructed verbally that if they made a mistake they should continue subtracting from the new, incorrect number. Each three-digit response was entered using the linear number keys on the keyboard with each digit being represented on screen by an asterisk. Pressing the enter key signals the end of each response and clears the three asterisks from the screen. The task was scored for total number of subtractions and number of errors. In the case of incorrect responses, subsequent responses were scored as positive if they were correct in relation to the new number.
as §4, §5

[6] = test system: healthy, young male and female adults; test: Cognitive Demand Battery: subjective 'mental fatigue' scale
Description: as §1, §2, §3
At the end of each set of tasks participants were asked to indicate how mentally fatigued they felt by marking a 100 mm line with the end-points labelled “not at all” and “extremely”.
as §4, §5

[7] = test system: healthy male and female individuals aged between 20 and 40 years; test: CogState 12 minute Early Phase cognitive test battery
Description: Effects of carnitine on cognitive function were studied with a CogState™ 12 minute Early Phase cognitive test battery. The test was developed by CogState, US, and is described in U.S. Pat. No. 7,163,513 B2. The test uses playing cards and computer mazes for measuring the cognitive domains of executive function, psychomotor function, visual attention and visual learning. Tasks correspond to cognitive domains as follows: Maze learning task. […] It was carried out with 20 healthy male and female individuals aged between 20 and 40 years. The test was double-blind and placebo-controlled and studied effects of 500 mg L-carnitine, administered as 736 mg L-carnitine L-tartrate (Carnipure™ tartrate, Lonza AG) in water in a single dose. A single test battery of about 10 min comprised maze learning task, a detection task with playing cards, an identification task with playing cards and a one card learning task. Consecutive accomplishing of the test battery took place twice prior to and hourly after intake of the study preparation over a period of 6 hours.

[8] = 500 mg single dose in water, hourly over 6 hours

## CC(=O)O[C@H](CC(=O)[O-])C[N+](C)(C)C [ALC, acetyl-L-carnitine]
[1]; 1000 mg single dose
  Performance of the CDB in comparison to placebo: no evidence of benefits
[1]
  Beneficial effect on fatigue / cognitive function, overall statement: at best moderate
[2]; 1000 mg single dose, after the post-dose tasks, p=0.015
  Bond-Lader content rating compared to placebo: less content
[2]; 1000 mg single dose, before the post-dose tasks, p=0.001
  Bond-Lader content rating compared to placebo: less content
[2]; 1000 mg single dose, before undertaking the post-dose tasks, p=0.009
  Bond-Lader alert rating compared to placebo: less alert
[2]; 1000 mg single dose, second post-dose time-point as printed
  Bond-Lader alertness (summary of findings): lower levels of alertness

## C[N+](C)(C)C[C@H](O)CC(=O)[O-] [LC, L-carnitine]
[3]; 500 mg single dose, 2nd repetition, p=0.015
  RVIP accuracy compared to placebo: outperformed placebo
[3]; 500 mg single dose, 3rd repetition, p=0.013
  RVIP speed of responses compared to placebo: performed faster
[3]; 500 mg single dose, 3rd repetition, p=0.036
  RVIP accuracy compared to placebo: outperformed placebo
[3]; 500 mg single dose, 4th repetition, p=0.07
  RVIP accuracy compared to placebo: trend towards the same effect
[3]; 500 mg single dose, each of 6 repetitions, significant only at the 3rd
  RVIP speed of responses compared to placebo: performed faster at each repetition
[3]; 2000 mg single dose, 4th repetition, p=0.089
  RVIP speed of responses compared to placebo: trend towards slower responding
[1]; 500 mg single dose, planned comparisons
  Performance of the CDB in comparison to placebo: significant improvements in performance of the CDB
[1]; 2000 mg single dose
  Performance of the CDB in comparison to placebo: no evidence of benefits
[1]
  Beneficial effect on fatigue / cognitive function, overall statement: pronounced
[4]; 500 mg single dose, 2nd repetition, p=0.044
  Serial 7s number of subtractions compared to placebo: more subtractions
[4]; 500 mg single dose, 4th repetition, p=0.018
  Serial 7s number of subtractions compared to placebo: more subtractions
[4]; 2000 mg single dose, 4th repetition, p=0.053
  Serial 7s number of subtractions compared to placebo: trend towards more subtractions
[5]; 500 mg single dose, 2nd repetition, p=0.08
  Serial 3s number of subtractions compared to placebo: statistical trends towards the same effect
[5]; 500 mg single dose, 3rd repetition, p=0.09
  Serial 3s number of subtractions compared to placebo: statistical trends towards the same effect
[5]; 500 mg single dose, 4th repetition, planned comparison p=0.006
  Serial 3s number of subtractions compared to placebo: more subtractions
[5]; 500 mg single dose, 6th repetition, p=0.016
  Serial 3s number of subtractions compared to placebo: more subtractions
[5]; 2000 mg single dose, 5th repetition, p=0.04, may be type 1 error
  Serial 3s number of subtractions compared to placebo: more subtractions
[2]; 500 mg single dose, first (pre-task) post-dose assessment, p=0.004
  Bond-Lader content rating compared to placebo: less content
[2]; 500 mg single dose, first (pre-task) post-dose assessment, p=0.037
  Bond-Lader calm rating compared to placebo: less calm
[2]; 500 mg single dose, post task assessment, p=0.016
  Bond-Lader calm rating compared to placebo: more calm
[6]; 500 mg single dose, 4th repetition, p=0.065
  Subjective mental fatigue rating compared to placebo: trend towards the same effect
[6]; 500 mg single dose, 6th repetition, p=0.033
  Subjective mental fatigue rating compared to placebo: ratings of fatigue were lower
[6]; 500 mg single dose, after each repetition, numerical, significant only after the last set
  Subjective mental fatigue rating compared to placebo: numerically less ‘mentally fatigued’
[6]; 2000 mg single dose, 5th repetition, p=0.02
  Subjective mental fatigue rating compared to placebo: higher than placebo
[7]; 500 mg single dose in water, after four, five and six hours
  Psychomotor function (detection task): decrease of psychomotor function
[7]; 500 mg single dose in water, at the time of decreased psychomotor function (4-6 hours)
  Higher cognitive processes, such as memory and executive function: not impaired
[7]; [8]
  Visual attentional function (identification task): no significant effect
  Visual learning (one card learning task): no significant effect
[7]; 500 mg single dose in water, two hours after intake, individuals without fatigue
  Executive function (maze learning task): some evidence for a short-acting benefit
[7]; 500 mg single dose, beyond approximately two hours
  Long time improvement of cognitive function: not observed
